Experimental data from patent publication US9718816B2, “1-phenoxy-3-(alkylamino)-propan-2-ol derivatives as CARM1 inhibitors and uses thereof” (Epizyme, Inc., priority 2013, dated 2017).

test system: asymmetric di-methyl PABP1 in RKO cells; test: RKO methylation assay (In Cell Western, asymmetric di-methyl PABP1); type: cell-based; details: Homo sapiens, 48 hours incubation, read-out: Cellular IC50
Description: RKO adherent cells were purchased from ATCC (American Type Culture Collection), Manassas, Va., USA. DMEM/Glutamax medium, penicillin-streptomycin, heat inactivated fetal bovine serum, 0.05% trypsin and D-PBS were purchased from Life Technologies, Grand Island, N.Y., USA. Odyssey blocking buffer, 800CW goat anti-rabbit IgG (H+L) antibody, and Licor Odyssey infrared scanner were purchased from Licor Biosciences, Lincoln, Nebr., USA. Asymmetric di-methyl PABP1 antibody was purchased from Cell Signaling Technology, Danvers, Mass., USA. Methanol was purchased from VWR, Franklin, Mass., USA. 10% Tween 20 was purchased from KPL, Inc., Gaithersburg, Md., USA. Paraformaldehyde (PFA) was purchased from EM Sciences. DRAQ5 was purchased from Biostatus Limited, Leicestershire, UK. […]
Calculations. First, the ratio for each well was determined by:
Each plate included fourteen control wells of DMSO only treatment (minimum inhibition) as well as fourteen control wells for maximum inhibition treated with 20 μM of a reference compound. The average of the ratio values for each control type was calculated and used to determine the percent […] for each test well in the plate. […]
Percent inhibition was determined and IC50 curves were generated using triplicate wells per concentration of compound.

With `CNCC(O)COc1cc(OC)cc(-c2cc(N3CCOCC3)n3ncc(C4CC4)c3n2)c1` (centres unmarked) [Example 18-6] the IC50 was 5000 to 10000 nM.

target: T1, CARM1 (Homo sapiens, UniProt Q86X55); test: CARM1 enzyme assay on peptide substrate (3H-SAM Flashplate); type: biochemical; details: CARM1 0.25 nM, 3H-SAM 30 nM, peptide 250 nM, 30 min preincubation; read-out: Biochem IC50
T1 construct: Flag-CARM1-His; made in house; host or cells: HEK 293F cells infected with recombinant baculovirus (pFastBacMam)
T1 sequence (Q86X55 1-585 isoform Q86X55-1): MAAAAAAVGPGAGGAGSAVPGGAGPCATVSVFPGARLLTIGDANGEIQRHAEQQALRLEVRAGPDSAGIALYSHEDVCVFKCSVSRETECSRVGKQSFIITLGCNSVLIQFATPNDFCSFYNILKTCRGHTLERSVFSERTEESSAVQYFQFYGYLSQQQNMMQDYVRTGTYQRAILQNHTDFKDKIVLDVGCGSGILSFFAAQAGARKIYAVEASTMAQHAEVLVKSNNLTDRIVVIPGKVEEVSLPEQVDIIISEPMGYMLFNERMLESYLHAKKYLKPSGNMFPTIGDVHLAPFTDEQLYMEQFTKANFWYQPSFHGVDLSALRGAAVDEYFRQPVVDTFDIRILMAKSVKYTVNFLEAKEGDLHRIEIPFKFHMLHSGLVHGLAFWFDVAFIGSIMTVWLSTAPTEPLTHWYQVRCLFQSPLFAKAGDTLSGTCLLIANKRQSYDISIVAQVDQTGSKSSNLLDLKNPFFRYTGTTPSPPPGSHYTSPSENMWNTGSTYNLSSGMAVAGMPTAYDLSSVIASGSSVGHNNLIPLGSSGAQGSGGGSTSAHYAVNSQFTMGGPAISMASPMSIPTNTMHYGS
Description: S-adenosylmethionine (SAM), S-adenosylhomocysteine (SAH), bicine, Tween20, dimethylsulfoxide (DMSO), bovine skin gelatin (BSG), sodium butyrate and Tris(2-carboxyethyl)phosphine hydrochloride solution (TCEP) were purchased from Sigma-Aldrich at the highest level of purity possible. ^3H-SAM was purchase from American Radiolabeled Chemicals with a specific activity of 80 Ci/mmol. 384-well streptavidin Flashplates were purchased from PerkinElmer.
Peptide representative of human histone H3 residues 16-30 was synthesized with an N-terminal linker-affinity tag motif and a C-terminal amide cap by 21^St Century Biochemicals. The peptide was purified by high-performance liquid chromatography (HPLC) to greater than 95% purity and confirmed by liquid chromatography mass spectrometry (LC-MS). The sequence was Biot-Ahx-[…]-amide and contained a monomethylated arginine at position 26 (SEQ ID NO.:1).
Human CARM1 (PRMT4) (NM_199141.1) transcript clone was amplified from an HEK 293 cDNA library, incorporating a flanking 5′ sequence encoding a FLAG tag ([…]) (SEQ ID NO.:2) fused directly to Ala 2 of CARM1 and 3′ sequence encoding a hexa His sequence ([…]) (SEQ ID NO.:3) fused directly to Ser 608. The gene sequence encoding isoform1 containing a deletion of amino acids 539-561 was amplified subsequently and subcloned into pFastBacMam (Viva Biotech). Protein Expression
Recombinant baculovirus were generated according to Bac-to-Bac kit instructions (Life Technologies). Protein over-expression was accomplished by infecting exponentially growing HEK 293F cell culture at 1.3×10^6 cell/ml with virus (MOI=10) in the presence of 8 mM sodium butyrate. Infections were carried out at 37° C. for 48 hours, harvested by centrifugation, and stored at −80° C. for purification.
Column was washed with 500 mM NaCl in buffer A and Flag-CARM1-His was eluted with 200 ug/ml FLAG peptide in buffer A. Pooled fractions were dialyzed in 20 mM Tris, 150 mM NaCl, 5% glycerol and 1 mM DTT, pH 7.8. The purity of recovered protein was 94.
General Procedure for CARM1 Enzyme Assays on Peptide Substrates
The assays were all performed in a buffer consisting of 20 mM Bicine (pH=7.6), 1 mM TCEP, 0.005% BSG, and 0.002% Tween 20, prepared on the day of use. Compounds in 100% DMSO (1 ul) were spotted into a polypropylene 384-well V-bottom plates (Greiner) using a Platemate Plus outfitted with a 384-channel head (Thermo Scientific). DMSO (1 ul) was added to Columns 11, 12, 23, 24, rows A-H for the maximum signal control and 1 ul of SAH, a known product and inhibitor of CARM1, was added to columns 11, 12, 23, 24, rows I-P for the minimum signal control. A cocktail (40 ul) containing the CARM1 enzyme was added by Multidrop Combi (Thermo-Fisher). The compounds were allowed to incubate with CARM1 for 30 min at room temperature, then a cocktail (10 ul) containing ^3H-SAM and peptide was added to initiate the reaction (final volume=51 ul). The final concentrations of the components were as follows: CARM1 was 0.25 nM, ^3H-SAM was 30 nM, peptide was 250 nM, SAH in the minimum signal control wells was 1 mM, and the DMSO concentration was 2%. The assays were stopped by the addition of non-radiolabeled SAM (10 ul) to a final concentration of 300 uM, which dilutes the ^3H-SAM to a level where its incorporation into the peptide substrate is no longer detectable. 50 ul of the reaction in the 384-well polypropylene plate was then transferred to a 384-well Flashplate and the biotinylated peptides were allowed to bind to the streptavidin surface for at least 1 hour before being washed once with 0.1% Tween20 in a Biotek ELx405 plate washer. The plates were then read in a PerkinElmer TopCount plate reader to measure the quantity of ^3H-labeled peptide bound to the Flashplate surface, measured as disintegrations per minute (dpm) or alternatively, referred to as counts per minute (cpm). […]

Compared with `CNCC(O)COc1cccc(-c2cc(NCCCCCNC(=O)c3ccn(C)n3)c3cnn(C(C)C)c3n2)c1` (centres unmarked) [Example 64-1], `CNCC(O)COc1cccc(-c2cc(NCCCCCCNC(=O)c3cccnc3)c3cnn(C(C)C)c3n2)c1` (centres unmarked) [Example 65-1] is higher in IC50: less than 100 nM for the first, 100 to 1000 nM for the second.

`CCNCC(O)COc1cccc(-c2cc(N3CCOCC3)c3cnn(C(C)C)c3n2)c1` (centres unmarked) [Example 31-1] and `CNCC(O)COc1cccc(-c2cc(NCC3CCOCC3)c3cnn(C(C)C)c3n2)c1` (centres unmarked) [Example 41-1] cannot be ordered by IC50: less than 100 nM for the first, less than 100 nM for the second.

First: CC(C)n1ncc2c(NC3CC3)cc(-c3cccc(OCC(O)CN)c3)nc21 (centres unmarked) [Example 6-1]
Second: CC(C)n1ncc2c(N[C@H]3CO[C@@H]4OCC[C@@H]43)cc(-c3cccc(OCC(O)CN)c3)nc21 (some centres unmarked) [Example 38-1]
The IC50 of the first is higher: 100 to 1000 nM for the first, less than 100 nM for the second. The second is the more potent here.

`CNCC(O)COc1cccc(-c2cc(NCCCCNC(=O)c3cccnc3)c3cnn(C(C)C)c3n2)c1` (centres unmarked) [Example 61-1] and `CNCC(O)COc1cccc(-c2cc(NCCCNC(=O)c3cccnc3)c3cnn(C(C)C)c3n2)c1` (centres unmarked) [Example 59-1] fall in the same range of IC50: 100 to 1000 nM for the first, 100 to 1000 nM for the second.

First: CC(C)n1ncc2c(NS(=O)(=O)N(C)C)cc(-c3cccc(OCC(O)CN)c3)nc21 (centres unmarked) [Example 36-1]
Second: CC(C)n1ncc2c(NCc3cccc(O)c3)cc(-c3cccc(OCC(O)CN)c3)nc21 (centres unmarked) [Example 35-1]
The IC50 of the first is lower: less than 100 nM for the first, 100 to 1000 nM for the second.

`CNCC(O)COc1cccc(-c2cc(Nc3ccccn3)c3cnn(C(C)C)c3n2)c1` (centres unmarked) [Example 24-1] and `CNCC(O)COc1cccc(-c2cc(NCc3c(C)cc(C)nc3OC)c3cnn(C(C)C)c3n2)c1` (centres unmarked) [Example 57-1] fall in the same range of IC50: 100 to 1000 nM for the first, 100 to 1000 nM for the second.

Work on `CNCC(O)COc1cccc(-c2cc(N(C)CC3CCOCC3)c3cnn(C(C)C)c3n2)c1` (centres unmarked) [Example 48-1] yielded an IC50 of less than 100 nM.
